From patent US20260137806A1, “INTERCALATING SUGAR MOLECULES” (Xalud Therapeutics, Inc., priority 2022, published 2026)
Several values for one entry are separate records, joined by “and”; a condition that tells them apart may be missing. Equal values may be shown once.

How the values were obtained:
[1] = test system: NR8383 rat alveolar macrophages; assay: Cellular delivery: pDNA uptake (ddPCR); format: cell-based; conditions: LPS-activated NR8383; for pDNA copies per μL cell suspension: D-mannose plus pDNA
Protocol: The cell line used was NR8383 rat alveolar macrophages, which grow as a mixture of suspended and adherent cells. The culture medium was F-12K Medium+15% FBS. The cells were plated in a 24-well format at a seeding density of 4-6×10^5 cells/mL into the wells of a 24-well plate. All conditions were performed in duplicate. The testing conditions used NR8383 cells in both unactivated and activated states. […] Activated macrophages are characteristic of macrophages found in inflammatory disease states. […] Either 0, 1, or 2 μg pDNA was used per well, with or without mannose. The combination of pDNA minus D-mannose serves as pDNA control for all conditions. The combination of pDNA with uncomplexed Mannoquin 38 was completed by adding separate pDNA and Mannoquin 38 solutions to culture. Also, pDNA with complexed Mannoquin 38 were studied wherein pre-incubated pDNA and Mannoquin 38 solutions were added to the culture. Lipofectamine 2000 transfections per manufacturer's instructions was used as a positive control. Separate confirmation of successful transfection with Lipofectamine 2000 has been confirmed. The pDNA solution used was 40 μg/mL pDNA in PBS (herein after “Working pDNA solution”). […] For studies with no pDNA, 100 μL of 1×PBS was added to the appropriate culture wells. For plasmid-only conditions, to the appropriate culture wells, 100 μL of DNA solutions was added, wherein the solution was 50 μL of Working pDNA solution+150 μL of 1×PBS (1 μg pDNA) or 100 μL of Working pDNA solution+100 μL of 1×PBS (2 μg pDNA). For non-complexed test agent conditions, to the appropriate culture wells, 50 μL of each separately prepared solution was added: DNA solution (0, 25, or 50 μL Working pDNA solution+100, 75, or 50 μL 1×PBS, respectively) or test agent solution (25, 25, or 50 μL Test Agent Working solution+75, 75, or 50 μL 1×PBS, respectively). […] PCR reaction was performed and read according to the manufacturer's protocol.

[2] = Kinetic solubility measurements; conditions: aqueous buffer, kinetic from dmso stock
DNA plasmid = assay: Quinacrine-DNA binding saturation (absorbance titration); conditions: 4 mM or 8 mM phosphate/citrate buffer; FIG. 3
Protocol: FIG. 2 is a wavelength versus absorbance graph used to study quinacrine-DNA binding. Quinacrine concentrations were held constant under low ionic conditions (10 mM Na^+), and DNA plasmid was titrated. Absorbance was measured at 260 nm (DNA absorbance), 424 nm (quinacrine absorbance), 445 nm (quinacrine absorbance), and 461 nm (isobestic point).
FIG. 3 is a plasmid:quinacrine ratio versus absorbance graph used to study quinacrine-DNA binding saturation. The recovery of absorbance (marked with an arrow) indicates saturation. Saturation occurred at a plasmid/quinacrine ratio of 8 in 4 mM or 8 mM phosphate/citrate buffer.

O=C[C@@H](O)[C@@H](O)[C@H](O)[C@H](O)CO [D-mannose]
pDNA copies per μL cell suspension ([1]; 1 μg pDNA): 68 copies per μL cell suspension
pDNA copies per μL cell suspension ([1]; 2 μg pDNA): 68.4 copies per μL cell suspension
dose-dependency of uptake based on pDNA level ([1]; agent plus pDNA, not complexed): no dose-dependency

C[C@]12CC[C@H]3[C@@H](CCC4=CC(=O)CC[C@@]43C)[C@@H]1CC[C@@H]2O [Testosterone]
solubility at 4 h [2]: 40 µM and 12 µg/mL

CCN(CC)CCCC(C)Nc1c2ccc(Cl)cc2nc2ccc(OC)cc12 (centres unmarked) [quinacrine]
plasmid/quinacrine ratio at saturation (DNA plasmid): 8
